# Tested on: MV-4-11 cells
# Assay: Gene expression microarray analysis (Affymetrix PrimeView) and GSEA
# Format: cell-based, human
# Parameters: RFU PODN (11730768_x_at) / Fold change /veh PODN (11730768_x_at) / RFU LINC00158 (11744669_a_at) / Fold change /veh LINC00158 (11744669_a_at) / RFU DUSP10 (11751237_a_at) / Fold change /veh DUSP10 (11751237_a_at) / RFU ID3 (11757404_x_at) / Fold change /veh ID3 (11757404_x_at) / RFU PLEKHG5 (11737974_s_at) / Fold change /veh PLEKHG5 (11737974_s_at) / RFU LRRC4B (11730491_at) / Fold change /veh LRRC4B (11730491_at) / RFU GIMAP4 (11747438_a_at) / Fold change /veh GIMAP4 (11747438_a_at) / RFU KRT8 (11758183_x_at) / Fold change /veh KRT8 (11758183_x_at) / RFU CNN1 (11734310_a_at) / Fold change /veh CNN1 (11734310_a_at) / RFU VPS37D (11726825_at) / Fold change /veh VPS37D (11726825_at) / RFU C10orf10 (11716522_x_at) / Fold change /veh C10orf10 (11716522_x_at) / RFU KIR2DL2 /// KIR2DL4 /// KIR2DL5A /// KIR2DL5B /// KIR2DS1 /// KIR2DS2 /// KIR2DS3 /// KIR2DS4 /// KIR3DL3 /// KIR3DL3 /// KIR3DS1 (11738374_at) / Fold change /veh KIR2DL2 /// KIR2DL4 /// KIR2DL5A /// KIR2DL5B /// KIR2DS1 /// KIR2DS2 /// KIR2DS3 /// KIR2DS4 /// KIR3DL3 /// KIR3DL3 /// KIR3DS1 (11738374_at) / RFU C1QL1 (11718748_at) / Fold change /veh C1QL1 (11718748_at) / RFU TMPRSS4 (11747572_a_at) / Fold change /veh TMPRSS4 (11747572_a_at) / RFU HAMP (11756126_x_at) / Fold change /veh HAMP (11756126_x_at) / RFU RNFT2 (11725882_a_at) / Fold change /veh RNFT2 (11725882_a_at) / RFU NR4A2 (11747474_a_at) / Fold change /veh NR4A2 (11747474_a_at) / RFU ABCC12 (11746883_a_at) / Fold change /veh ABCC12 (11746883_a_at) / RFU TMEM136 (11760407_x_at) / Fold change /veh TMEM136 (11760407_x_at) / RFU CLDN22 /// WWC2 (11732394_at) / Fold change /veh CLDN22 /// WWC2 (11732394_at) / RFU HLA-DPB1 (11760878_x_at) / Fold change /veh HLA-DPB1 (11760878_x_at) / RFU SPINT1 (11716480_a_at) / Fold change /veh SPINT1 (11716480_a_at) / RFU GAP43 (11754022_s_at) / Fold change /veh GAP43 (11754022_s_at) / RFU A4GNT (11735810_at) / Fold change /veh A4GNT (11735810_at) / RFU PRB3 (11715151_x_at) / Fold change /veh PRB3 (11715151_x_at) / RFU TUBB4B (11761932_at) / Fold change /veh TUBB4B (11761932_at) / RFU CAPN14 (11732068_a_at) / Fold change /veh CAPN14 (11732068_a_at) / RFU TMCC2 (11721928_a_at) / Fold change /veh TMCC2 (11721928_a_at) / RFU IRGQ (11745062_a_at) / Fold change /veh IRGQ (11745062_a_at) / RFU FAM174B (11720279_a_at) / Fold change /veh FAM174B (11720279_a_at) / RFU TMPRSS4 (11748680_a_at) / Fold change /veh TMPRSS4 (11748680_a_at) / RFU FAM212B (11763350_a_at) / Fold change /veh FAM212B (11763350_a_at) / RFU PLEKHG5 (11743358_a_at) / Fold change /veh PLEKHG5 (11743358_a_at) / RFU ZSCAN30 (11745921_a_at) / Fold change /veh ZSCAN30 (11745921_a_at) / RFU CMKLR1 (11741424_a_at) / Fold change /veh CMKLR1 (11741424_a_at) / RFU LOC101060620 /// MAPK8IP1 (11723275_at) / Fold change /veh LOC101060620 /// MAPK8IP1 (11723275_at) / RFU SPTSSB (11747773_x_at) / Fold change /veh SPTSSB (11747773_x_at) / RFU PRSS12 (11739890_at) / Fold change /veh PRSS12 (11739890_at) / RFU BIN1 (11741810_x_at) / Fold change /veh BIN1 (11741810_x_at) / RFU WNT11 (11732464_a_at) / Fold change /veh WNT11 (11732464_a_at) / RFU C10orf10 (11716521_a_at) / Fold change /veh C10orf10 (11716521_a_at) / RFU C5orf56 (11738089_at) / Fold change /veh C5orf56 (11738089_at) / RFU CYB561 (11721691_x_at) / Fold change /veh CYB561 (11721691_x_at) / RFU ANKRD19P (11752326_a_at) / Fold change /veh ANKRD19P (11752326_a_at) / RFU OR2T12 /// OR2T33 /// OR2T8 (11738714_s_at) / Fold change /veh OR2T12 /// OR2T33 /// OR2T8 (11738714_s_at) / RFU VCAN (11748164_a_at) / Fold change /veh VCAN (11748164_a_at) / RFU JSRP1 (11732532_at) / Fold change /veh JSRP1 (11732532_at) / RFU KRTAP10-11 (11738290_x_at) / Fold change /veh KRTAP10-11 (11738290_x_at) / RFU MYO3A (11730013_a_at) / Fold change /veh MYO3A (11730013_a_at) / RFU EBF3 (11725865_a_at) / Fold change /veh EBF3 (11725865_a_at) / RFU CAMK2N1 (11719241_x_at) / Fold change /veh CAMK2N1 (11719241_x_at) / RFU C5orf56 (11738088_a_at) / Fold change /veh C5orf56 (11738088_a_at) / RFU OLFML3 (11715873_a_at) / Fold change /veh OLFML3 (11715873_a_at) / RFU LOC100653217 /// NTM (11731650_a_at) / Fold change /veh LOC100653217 /// NTM (11731650_a_at) / RFU MAPK11 (11762145_a_at) / Fold change /veh MAPK11 (11762145_a_at) / RFU FIZ1 (11724087_x_at) / Fold change /veh FIZ1 (11724087_x_at) / RFU OASL (11726364_x_at) / Fold change /veh OASL (11726364_x_at) / RFU SOX15 (11748057_x_at) / Fold change /veh SOX15 (11748057_x_at) / RFU CD79A (11719716_a_at) / Fold change /veh CD79A (11719716_a_at) / RFU HIST1H1D (11736915_at) / Fold change /veh HIST1H1D (11736915_at) / RFU CASKIN2 (11723855_a_at) / Fold change /veh CASKIN2 (11723855_a_at) / RFU LOC730098 (11760151_x_at) / Fold change /veh LOC730098 (11760151_x_at) / RFU OR4N2 (11742367_at) / Fold change /veh OR4N2 (11742367_at) / RFU PRRT2 (11749266_a_at) / Fold change /veh PRRT2 (11749266_a_at) / RFU SNX32 (11753110_a_at) / Fold change /veh SNX32 (11753110_a_at) / RFU CDHR5 (11726645_a_at) / Fold change /veh CDHR5 (11726645_a_at) / RFU RCAN1 (11760418_a_at) / Fold change /veh RCAN1 (11760418_a_at) / RFU FAM167A (11723789_a_at) / Fold change /veh FAM167A (11723789_a_at) / RFU FAM26E (11764081_at) / Fold change /veh FAM26E (11764081_at) / RFU ISYNA1 (11749810_s_at) / Fold change /veh ISYNA1 (11749810_s_at) / RFU ACY1 (11761880_at) / Fold change /veh ACY1 (11761880_at) / RFU 11764098_at / Fold change /veh 11764098_at / RFU SAMD14 (11745864_x_at) / Fold change /veh SAMD14 (11745864_x_at) / RFU NPB (11741838_a_at) / Fold change /veh NPB (11741838_a_at) / RFU TMPRSS6 (11731388_a_at) / Fold change /veh TMPRSS6 (11731388_a_at) / RFU KRTAP10-2 (11738614_at) / Fold change /veh KRTAP10-2 (11738614_at) / RFU ARHGAP8 /// PRR5-ARHGAP8 (11727945_x_at) / Fold change /veh ARHGAP8 /// PRR5-ARHGAP8 (11727945_x_at) / RFU KRTAP5-7 /// NADSYN1 (11734609_at) / Fold change /veh KRTAP5-7 /// NADSYN1 (11734609_at) / RFU RASL12 (11751679_a_at) / Fold change /veh RASL12 (11751679_a_at) / RFU CDKN2B (11736163_a_at) / Fold change /veh CDKN2B (11736163_a_at) / RFU PRF1 (11729649_at) / Fold change /veh PRF1 (11729649_at) / RFU, ZNF638 /// ZNF638-IT1 / Fold change vs veh, ZNF638 /// ZNF638-IT1 / RFU, PANK3 / Fold change vs veh, PANK3 / RFU, SH3YL1 / Fold change vs veh, SH3YL1 / RFU, ZEB2 / Fold change vs veh, ZEB2 / RFU, NRIP1 / Fold change vs veh, NRIP1 / RFU, PTTG1IP / Fold change vs veh, PTTG1IP / RFU, CAPN2 / Fold change vs veh, CAPN2 / RFU, MED14 / Fold change vs veh, MED14 / RFU, SNORA58 / Fold change vs veh, SNORA58 / RFU, C1orf63 / Fold change vs veh, C1orf63 / RFU, LRRFIP1 / Fold change vs veh, LRRFIP1 / RFU, NDUFAF7 / Fold change vs veh, NDUFAF7 / RFU, SLC12A2 / Fold change vs veh, SLC12A2 / RFU, IBTK / Fold change vs veh, IBTK / RFU, ESF1 / Fold change vs veh, ESF1 / Fold change vs veh, TMEM50B / RFU, TAOK1 / Fold change vs veh, TAOK1 / RFU, ACBD3 / Fold change vs veh, ACBD3 / RFU, TMA16 / Fold change vs veh, TMA16 / RFU, RWDD3 / Fold change vs veh, RWDD3 / RFU, BCAT1 / Fold change vs veh, BCAT1 / RFU, EDEM3 / Fold change vs veh, EDEM3 / RFU, TMEM33 / Fold change vs veh, TMEM33 / RFU, WDR75 / Fold change vs veh, WDR75 / RFU, AHCTF1 / Fold change vs veh, AHCTF1 / RFU, TFRC / Fold change vs veh, TFRC / RFU, ZDHHC17 / Fold change vs veh, ZDHHC17 / RFU, NOM1 / Fold change vs veh, NOM1 / RFU, ARL8B / Fold change vs veh, ARL8B / RFU, ZBTB11 / Fold change vs veh, ZBTB11 / RFU, TAMM41 / Fold change vs veh, TAMM41 / RFU, KIAA1704 /// LOC100996395 / Fold change vs veh, KIAA1704 /// LOC100996395 / RFU, ING1 / Fold change vs veh, ING1 / RFU, TRMT61B / Fold change vs veh, TRMT61B / RFU, FUBP3 / Fold change vs veh, FUBP3 / RFU, TP53 / Fold change vs veh, TP53 / RFU, TNKS2 / Fold change vs veh, TNKS2 / RFU, ZFP14 / Fold change vs veh, ZFP14 / RFU, ACTR2 / Fold change vs veh, ACTR2 / RFU, PPP3R1 / Fold change vs veh, PPP3R1 / RFU, PIK3R1 / Fold change vs veh, PIK3R1 / RFU, HNRNPA1 / Fold change vs veh, HNRNPA1 / RFU, RNF170 / Fold change vs veh, RNF170 / RFU, ZNF28 / Fold change vs veh, ZNF28 / RFU, RNGTT / Fold change vs veh, RNGTT / RFU, OGT / Fold change vs veh, OGT / RFU, BRD1 / Fold change vs veh, BRD1 / RFU, MARS / Fold change vs veh, MARS / RFU, ZNF655 / Fold change vs veh, ZNF655 / RFU, FAHD1 / Fold change vs veh, FAHD1 / RFU, BDP1 / Fold change vs veh, BDP1 / RFU, LRRCC1 / Fold change vs veh, LRRCC1 / RFU, ARID1A / Fold change vs veh, ARID1A / RFU, ZNF146 / Fold change vs veh, ZNF146 / RFU, ZNF330 / Fold change vs veh, ZNF330 / RFU, GPN3 / Fold change vs veh, GPN3 / RFU, C9orf123 / Fold change vs veh, C9orf123 / RFU, N4BP2L2 / Fold change vs veh, N4BP2L2 / RFU, ARFIP1 / Fold change vs veh, ARFIP1 / RFU, FAM179B / Fold change vs veh, FAM179B / RFU, BCL10 / Fold change vs veh, BCL10 / RFU, UHRF1BP1L / Fold change vs veh, UHRF1BP1L / RFU, BET1 / Fold change vs veh, BET1 / RFU, CNOT2 / Fold change vs veh, CNOT2 / RFU, ZNF268 / Fold change vs veh, ZNF268 / Fold change vs veh, ZNF507 / RFU, DGCR2 / Fold change vs veh, DGCR2 / RFU, WDSUB1 / Fold change vs veh, WDSUB1 / Fold change vs veh, HSP90B1 /// MIR3652 / RFU, ADSS / Fold change vs veh, ADSS / RFU, GK / Fold change vs veh, GK / RFU, ZNF148 / Fold change vs veh, ZNF148 / RFU, TAF9 / Fold change vs veh, TAF9 / RFU, SLC1A5 / Fold change vs veh, SLC1A5 / RFU, SLMO2 / Fold change vs veh, SLMO2 / RFU, ABCC4 / Fold change vs veh, ABCC4 / RFU, LOC101060439 /// RAP1B / Fold change vs veh, LOC101060439 /// RAP1B / RFU, RFX7 / Fold change vs veh, RFX7 / RFU, GTPBP10 / Fold change vs veh, GTPBP10 / RFU, CNEP1R1 / Fold change vs veh, CNEP1R1 / RFU, BIVM-ERCC5 /// ERCC5 / Fold change vs veh, BIVM-ERCC5 /// ERCC5 / RFU, ILF3 / Fold change vs veh, ILF3 / RFU 11762660_at / Fold change /veh 11762660_at / RFU VCAN (11757783_s_at) / Fold change /veh VCAN (11757783_s_at) / RFU DDX43 (11728927_at) / Fold change /veh DDX43 (11728927_at) / RFU KRT8 (11758188_x_at) / Fold change /veh KRT8 (11758188_x_at) / RFU NKD1 (11759106_at) / Fold change /veh NKD1 (11759106_at) / RFU SRD5A1 (11742802_a_at) / Fold change /veh SRD5A1 (11742802_a_at) / RFU TPSAB1 /// TPSB2 (11721975_s_at) / Fold change /veh TPSAB1 /// TPSB2 (11721975_s_at) / RFU GSTM3 (11746129_a_at) / Fold change /veh GSTM3 (11746129_a_at) / RFU IL23R (11737362_x_at) / Fold change /veh IL23R (11737362_x_at) / RFU TMEM51 (11727254_a_at) / Fold change /veh TMEM51 (11727254_a_at) / RFU PIWIL2 (11732686_x_at) / Fold change /veh PIWIL2 (11732686_x_at) / RFU ORM1 (11744905_x_at) / Fold change /veh ORM1 (11744905_x_at) / RFU CCDC152 (11743942_at) / Fold change /veh CCDC152 (11743942_at) / RFU ECM1 (11717891_a_at) / Fold change /veh ECM1 (11717891_a_at) / RFU IL23R (11748794_a_at) / Fold change /veh IL23R (11748794_a_at) / RFU TNFAIP8L3 (11732012_x_at) / Fold change /veh TNFAIP8L3 (11732012_x_at) / RFU MBOAT4 (11741988_at) / Fold change /veh MBOAT4 (11741988_at) / RFU 11764193_at / Fold change /veh 11764193_at / RFU TMEM53 (11763286_at) / Fold change /veh TMEM53 (11763286_at) / RFU MAGEB2 (11727129_at) / Fold change /veh MAGEB2 (11727129_at) / RFU TMEM200A (11744735_a_at) / Fold change /veh TMEM200A (11744735_a_at) / RFU CCDC152 (11751479_a_at) / Fold change /veh CCDC152 (11751479_a_at) / RFU FAM211A (11726209_a_at) / Fold change /veh FAM211A (11726209_a_at) / RFU RGS16 (11746705_a_at) / Fold change /veh RGS16 (11746705_a_at) / RFU VCAN (11755009_s_at) / Fold change /veh VCAN (11755009_s_at) / RFU RHOB (11743442_s_at) / Fold change /veh RHOB (11743442_s_at) / RFU RGS16 (11720943_a_at) / Fold change /veh RGS16 (11720943_a_at) / RFU RGS16 (11720944_at) / Fold change /veh RGS16 (11720944_at) / RFU, VPS4B / Fold change vs veh, VPS4B / RFU, CREB1 / Fold change vs veh, CREB1 / RFU, DNAJC13 / Fold change vs veh, DNAJC13 / RFU, GNAQ / Fold change vs veh, GNAQ / RFU, CDK5R1 / Fold change vs veh, CDK5R1 / RFU, ZRANB3 / Fold change vs veh, ZRANB3 / RFU, CUL4A / Fold change vs veh, CUL4A / RFU, CCNY / Fold change vs veh, CCNY / RFU, UFL1 / Fold change vs veh, UFL1 / RFU, COG3 / Fold change vs veh, COG3 / RFU, DIAPH2 / Fold change vs veh, DIAPH2 / RFU, SKA2 / Fold change vs veh, SKA2 / RFU, AFF3 / Fold change vs veh, AFF3 / RFU, LMF1 / Fold change vs veh, LMF1 / RFU, IPO11 / Fold change vs veh, IPO11 / RFU, DFFB / Fold change vs veh, DFFB / RFU, FOXP1 / Fold change vs veh, FOXP1 / RFU, CARD8 / Fold change vs veh, CARD8 / RFU, STRN3 / Fold change vs veh, STRN3 / RFU, ADK / Fold change vs veh, ADK / RFU, RASSF2 / Fold change vs veh, RASSF2 / RFU, WIPF1 / Fold change vs veh, WIPF1 / RFU, LARP1B / Fold change vs veh, LARP1B / RFU, RASA1 / Fold change vs veh, RASA1 / RFU, RB1 / Fold change vs veh, RB1 / RFU, PPFIA1 / Fold change vs veh, PPFIA1 / RFU, MAT2A / Fold change vs veh, MAT2A / RFU, CCT5 / Fold change vs veh, CCT5 / RFU, WDR92 / Fold change vs veh, WDR92 / RFU, CUX1 / Fold change vs veh, CUX1 / RFU, TTC7A / Fold change vs veh, TTC7A / RFU, TMEM135 / Fold change vs veh, TMEM135 / RFU, DEPTOR / Fold change vs veh, DEPTOR / RFU, CPM / Fold change vs veh, CPM / RFU, DNAJB6 / Fold change vs veh, DNAJB6 / RFU, CACNA2D3 / Fold change vs veh, CACNA2D3 / RFU, DTX4 / Fold change vs veh, DTX4 / RFU, TFCP2 / Fold change vs veh, TFCP2 / RFU, GMCL1 /// GMCL1P1 / Fold change vs veh, GMCL1 /// GMCL1P1 / RFU, AEBP2 / Fold change vs veh, AEBP2 / RFU, SNHG1 /// SNORD22 /// SNORD25 /// SNORD26 /// SNORD27 /// SNORD28 /// SNORD29 /// SNORD31 / Fold change vs veh, SNHG1 /// SNORD22 /// SNORD25 /// SNORD26 /// SNORD27 /// SNORD28 /// SNORD29 /// SNORD31 / Fold change (Aza/veh), C12orf56 (ProbeSet 11735607_a_at) / Fold change (ACY-1035/veh), C12orf56 (ProbeSet 11735607_a_at) / Fold change (Aza/veh), FGFR1OP (ProbeSet 11751329_s_at) / Fold change (ACY-1035/veh), FGFR1OP (ProbeSet 11751329_s_at) / Fold change (Aza/veh), VPS36 (ProbeSet 11739960_a_at) / Fold change (ACY-1035/veh), VPS36 (ProbeSet 11739960_a_at) / RFU SYPL1 (11715823_x_at) / Fold change /veh SYPL1 (11715823_x_at) / RFU IGFBP7 (11715501_s_at) / Fold change /veh IGFBP7 (11715501_s_at) / RFU REEP3 (11722064_at) / Fold change /veh REEP3 (11722064_at) / RFU IGLL1 (11728026_x_at) / Fold change /veh IGLL1 (11728026_x_at): dose or concentration left out as unconfirmed
# Settings: MV-4-11 cells, 48 hours
structure (smiles),measurement,value
Nc1ncn([C@@H]2O[C@H](CO)[C@@H](O)[C@H]2O)c(=O)n1 [azacitidine],RFU NKD1 (11759106_at),23.64 RFU

# Reference: paper PMC5218480 (PLoS ONE, 2017)
